Results from US10076481B2, “Compositions for treating periodontitis and dental calculus accumulation” (The Research Foundation for the State University of New York, priority 2016, dated 2018).

Key:
Assay type in all cases: cell-based
human salivary sediment [1] = experiment: pH response of salivary sediment incubated with individual amino acids, with or without 28 mM urea; settings: 37° C.
Protocol: (§1) To obtain human salivary sediment for performance of the experiments described herein, paraffin wax (4.02 g) was chewed by human subjects (including some subjects 70+ years of age, where oral alkalinity is commonly more prevalent) to stimulate the flow of saliva. Prior to the experiment, the subjects fasted for 12 hours and abstained from oral hygiene for at least 24 hours (to enable spontaneous dental plaque bacterial growth and buildup on their teeth and other oral surfaces (Kleinberg. I., 1967, Arch. Oral Biol., 1457-1473)). As a result of this process, oral bacteria were dislodged by the inert paraffin wax from the teeth and oral soft tissue surfaces in the mouths of the human subjects. About 40 ml of whole saliva was then collected from each subject by expectoration into a 50 ml polypropylene centrifuge tube chilled by surrounding it with cracked ice (Korayem, M. R., Traudt, M., and Kleinberg, I., 1990; Sandham, H. J. and Kleinberg, I., 1973).
(§2) The saliva collected was centrifuged at 1740 g in an International Equipment Company clinical centrifuge (Needham Heights, Mass.) for 15 min. at 4° C. The supernatant was decanted and discarded. To wash the remaining bacterial sediment, 40 ml of ice-cold distilled water was added and mixed in a vortex mixer. The resulting sediment-water mixture was centrifuged at 1740 g for 15 min. at 4° C. The supernatant was again decanted and discarded. This bacterial sediment washing procedure was repeated twice. To the washed bacterial sediment, 10 ml of deionized water was added and the composition was then mixed briefly and thoroughly in a vortex mixer. The sediment was transferred to a 15 ml polypropylene centrifuge tube. The resulting suspension was centrifuged at 1740 g for 15 min. at 4° C. and the resulting supernatant was aspirated and discarded.
To the packed 1.0 ml of salivary sediment obtained after centrifugation, 1.0 ml of deionized water was added to make a 50% salivary sediment suspension for the preparation of the following standard incubation mixtures: salivary sediment at 16.7% (v/v), with and without added individual amino acids: serine, glycine, alanine, valine, and/or histidine, etc. at either a 90 or 120 mM concentration; and leucine, isoleucine, aspartic acid, glutamine, cysteine, cystine, lysine, arginine, tyrosine, phenylalanine, threonine, proline, methionine, tyrosine, glutamine, and/or asparagine, each at 9 mM. These mixtures were each prepared in the presence or absence of 28 mM urea, which has a relatively high pH.
The initial pH of the incubation mixtures was carefully adjusted to or near 7.0 with either 1.0 M NaOH or 1.0 M HCl. Each bacterial mixture was then incubated overnight in a water bath at 37° C. The pH of each mixture was then determined using a combined pH and reference electrode (Radiometer Analytical SAS, Villeurbanne, France) at pre-determined time intervals.

human salivary sediment [2] = experiment: pH response of salivary sediment when initial pH was not adjusted to neutrality
Protocol: Separately, incubation mixtures containing salivary sediment at 16.7% (v/v), 238 mM serine, and 6 mM sodium phytate, with or without 6.7 mM urea, were prepared and incubated without adjusting the initial pH to or near 7.0, except for salivary sediment mixed with deionized water, which was adjusted to pH 8.10 with 1 M NaOH. Determination of the pH of each of these experimental entities were carried out at pre-determined time intervals (i.e., at 0 min., 15 min., 30 min., 1 h, 2 h, 3 h, 4 h, and 21 h) with a pH meter (Radiometer Copenhagen, type PHM26, Radiometer America, Westlake, Ohio) and a combination pH electrode (Radiometer Analytical, Cedex, France).

human salivary sediment [3] = experiment: pH response of salivary sediment with serine, with or without sodium phytate and 6.7 mM urea
Protocol: as §1, §2
Separately, incubation mixtures containing salivary sediment at 16.7% (v/v) and 6.7 or 8.3 mM serine in the presence or absence of 6.7 mM urea, 20 or 25 mM serine and/or 3 mM sodium phytate (Sigma-Aldrich, St. Louis, Mo.), both in the presence or absence of 6.7 mM urea were prepared. Mixtures were incubated overnight at 37° C. in a water bath incubator (Kleinberg, I. and Hall, G., 1968; Salako, N. O. and Kleinberg, I., 1989), after adjusting the initial pH to or near 7.0 with 1N NaOH or 1N HCl.
Separately, incubation mixtures containing salivary sediment at 16.7% (v/v), 20 or 25 mM serine, and 6 mM sodium phytate were prepared in the presence or absence of 6.7 mM urea. Mixtures were incubated overnight at 37° C. in a water bath incubator, after adjusting the initial pH to or near 7.0 with 1N NaOH or 1N HCl. […]

[4] = 90 mM amino acid + 28 mM urea, 4 hours
[5] = 90 mM amino acid + 28 mM urea, 21 hours
[6] = 120 mM amino acid + 28 mM urea, 4 hours
[7] = 120 mM amino acid + 28 mM urea, 21 hours
[8] = 9 mM amino acid + 28 mM urea, 21 hours (overnight)
[9] = 9 mM amino acid, without urea, 21 hours (overnight)
[10] = 9 mM amino acid + 28 mM urea, 4 hours
[11] = 9 mM amino acid, without urea, 4 hours

Structure (SMILES)	pH of salivary sediment (human salivary sediment [1]; [8])	pH of salivary sediment (human salivary sediment [1]; [9])	pH of salivary sediment (human salivary sediment [1]; [10])	pH of salivary sediment (human salivary sediment [1]; [11])	other results
C[C@H](N)C(=O)O [alanine]	–	–	–	–	pH of salivary sediment (human salivary sediment [1]; [4]): 8.82; pH of salivary sediment (human salivary sediment [1]; [5]): 8.80; pH of salivary sediment (human salivary sediment [1]; [6]): 8.72; pH of salivary sediment (human salivary sediment [1]; [7]): 8.67
N=C(N)NCCC[C@H](N)C(=O)O [arginine]	8.80	7.97	–	–	–
NC(=O)C[C@H](N)C(=O)O [asparagine]	8.70	7.35	8.90	6.55	–
N[C@@H](CC(=O)O)C(=O)O [aspartic acid]	8.60	7.00	8.90	–	–
N[C@@H](CS)C(=O)O [cysteine]	8.55	6.60	8.75	6.35	–
N[C@@H](CSSC[C@H](N)C(=O)O)C(=O)O [cystine]	8.50	6.35	8.80	–	–
N[C@@H](CCC(=O)O)C(=O)O [glutamic acid]	8.50	6.70	8.90	–	–
NC(=O)CC[C@H](N)C(=O)O [glutamine]	8.80	6.25	9.00	5.95	–
NCC(=O)O [glycine]	–	–	–	–	pH of salivary sediment (human salivary sediment [1]; [4]): 8.72; pH of salivary sediment (human salivary sediment [1]; [5]): 8.65; pH of salivary sediment (human salivary sediment [1]; [6]): 8.90; pH of salivary sediment (human salivary sediment [1]; [7]): 8.55
N[C@@H](Cc1c[nH]cn1)C(=O)O [histidine]	–	–	–	–	pH of salivary sediment (human salivary sediment [1]; [5]): 8.30; pH of salivary sediment (human salivary sediment [1]; [7]): 8.22
CC[C@H](C)[C@H](N)C(=O)O [isoleucine]	8.65	6.62	8.90	6.40	–
CC(C)C[C@H](N)C(=O)O [leucine]	8.60	6.40	8.85	6.15	–
NCCCC[C@H](N)C(=O)O [lysine]	8.70	remained at neutrality	–	–	–
CSCC[C@H](N)C(=O)O [methionine]	8.90	6.20	9.00	–	–
N[C@@H](Cc1ccccc1)C(=O)O [phenylalanine]	8.65	–	8.87	–	–
O=C(O)[C@@H]1CCCN1 [proline]	8.80	remained about unchanged	9.00	6.10	–
N[C@@H](CO)C(=O)O [serine]	–	–	–	–	initial pH of incubation mixture (human salivary sediment [2]; absence of urea, initial pH not adjusted): 8.10; pH of incubation mixture (human salivary sediment [2]; absence of urea, initial pH not adjusted, 21 hours): 6.50; initial pH of incubation mixture (human salivary sediment [2]; with urea, initial pH not adjusted to 7.00): 8.10; pH of incubation mixture (human salivary sediment [2]; with urea, initial pH not adjusted, end of the incubation): 6.85; pH of salivary sediment (human salivary sediment [1]; [4]): 8.22; pH of salivary sediment (human salivary sediment [1]; [6]): 8.30; pH of salivary sediment (human salivary sediment [3]; 6.70 mM serine + 6.70 mM urea, 21 hours): 7.60; pH of salivary sediment (human salivary sediment [3]; 6.70 mM serine, without urea, 4 hours): 5.95; pH of salivary sediment (human salivary sediment [3]; 6.70 mM serine, without urea, 21 hours): 6.30; pH of salivary sediment (human salivary sediment [3]; 8.30 mM serine + 6.70 mM urea, 21 hours): 7.50; pH of salivary sediment (human salivary sediment [3]; 8.30 mM serine, without urea, 4 hours): 5.90; pH of salivary sediment (human salivary sediment [3]; 8.30 mM serine, without urea, 21 hours): 6.25; pH of salivary sediment (human salivary sediment [3]; 20 mM serine, absence of urea, 4 hours (FIG. 16, 6 mM sodium phytate series)): 7.15; pH of salivary sediment (human salivary sediment [3]; 20 mM serine, absence of urea, 4 hours, initial pH 6.90 (FIG. 15, 3 mM sodium phytate series)): 6.20; pH of salivary sediment (human salivary sediment [3]; 20 mM serine, absence of urea, 21 hours (FIG. 15, 3 mM sodium phytate series)): 6.65; pH of salivary sediment (human salivary sediment [3]; 20 mM serine, absence of urea, 21 hours (FIG. 16, 6 mM sodium phytate series)): 6.47; pH of salivary sediment (human salivary sediment [3]; 25 mM serine, absence of urea, 4 hours (FIG. 16, 6 mM sodium phytate series)): 6.17; pH of salivary sediment (human salivary sediment [3]; 25 mM serine, absence of urea, 4 hours, initial pH 7.00 (FIG. 15, 3 mM sodium phytate series)): 6.17; pH of salivary sediment (human salivary sediment [3]; 25 mM serine, absence of urea, 21 hours (FIG. 15, 3 mM sodium phytate series)): 6.70; pH of salivary sediment (human salivary sediment [3]; 25 mM serine, absence of urea, 21 hours (FIG. 16, 6 mM sodium phytate series)): 6.45
C[C@@H](O)[C@H](N)C(=O)O [threonine]	8.60	remained about unchanged	8.90	6.20	–
N[C@@H](Cc1c[nH]c2ccccc12)C(=O)O [tryptophan]	8.90	6.20	9.00	–	–
N[C@@H](Cc1ccc(O)cc1)C(=O)O [tyrosine]	8.62	–	8.87	–	–
NC(N)=O [urea]	–	–	–	–	pH of salivary sediment (human salivary sediment [1]; 28 mM urea alone, 4 hours): about 9.0; pH of salivary sediment (human salivary sediment [1]; 28 mM urea alone, 21 hours): 8.8
CC(C)[C@H](N)C(=O)O [valine]	–	–	–	–	pH of salivary sediment (human salivary sediment [1]; [4]): 8.90; pH of salivary sediment (human salivary sediment [1]; [5]): 8.85; pH of salivary sediment (human salivary sediment [1]; [6]): 8.80; pH of salivary sediment (human salivary sediment [1]; [7]): 8.70
